# Results: patent US12545906B2, “Methods and compositions for selection of functional aptamers” (Aummune Ltd., priority 2018, dated 2026)
# Key:
# [1] = system: TNBC9 cells; experiment: induction of caspase-3/7 activation / target killing in TNBC9 cells; type: cell-based, human
# Text: (§1) The 10 most abundant aptamer sequences are highlighted. Panel B is a representative screening of the 10 most abundant aptamers from Panel A for significant caspase-3/7 activation in comparison to vehicle (V) and random oligonucleotide (R) in TNBC9 cells. Aptamer IDs labeled 1-10 (E1, E2, . . . . E10). […] STA, staurosporine; PAC, paclitaxel; Random, random oligonucleotide.
# Functional enrichment of aptamers that mediate apoptosis of patient-derived xenograft (PDX)-derived triple negative breast cancer (TNBC) cells, termed TNBC9 (Example 8) was followed by selection of lead molecules. Based on sequencing analysis (FIG. 10, Panel A), the 10 most abundant sequences in the functionally enriched aptamer population were selected, synthesized, and folded.
# The effectiveness of the selected candidate aptamers in target killing was measured on TNBC9 cells. Specifically, candidate aptamers were synthesized, folded, directly tested for induction of caspase-3/7 activation in TNBC9 cells.
# [2] = system: MCF10A cells; experiment: selectivity of cell death induction, negative target cells; type: cell-based, human; details: selectivity at the target cell level
# [3] = system: MDA-MB-231 cells; experiment: effect of E8 on MDA-MB-231 cells; type: cell-based
# [4] = system: TNBC cells; experiment: effect of E8 on TNBC cells in mouse serum; type: cell-based
# Text: as §1
# (See, e.g., Yamashita, M. et al. A novel method for evaluating antibody-dependent cell-mediated cytotoxicity by flow cytometry using cryopreserved human peripheral blood mononuclear cells. Sci. Rep. 6, 19772 (2016); Romano, E. et al. Ipilimumab-dependent cell-mediated cytotoxicity of regulatory T cells ex vivo by nonclassical monocytes in melanoma patients. Proc. Natl. Acad. Sci. U.S.A 112, 6140-6145 (2015); Kumar, R. et al. PD-1 blockade restores impaired function of ex vivo expanded CD8 T cells and enhances apoptosis in mismatch repair deficient EpCAMPD-L1 cancer cells. Onco. Targets. Ther. 10, 3453-3465 (2017), each of which is hereby incorporated by reference.).
# [5] = system: red blood cells; experiment: incubation with red blood cells: agglutination and hemolysis; type: cell-based, human; details: varying concentrations of E8
# Procedure: (§2) Varying concentrations of E8 aptamer candidate were incubated with red blood cells and, separately, with PBMCs from healthy donors to ensure E8 administration is applicable in a clinical setting. No effects of blood agglutination or red blood cell hemolysis were measured.
# [6] = system: PBMCs from healthy donors; experiment: cytokine antibody array assay on PBMCs; type: cell-based, human; details: varying concentrations of E8
# Procedure: as §2
# [7] = system: MDA-MB-231-derived tumors; experiment: efficacy of E8 on tumor volume in tumor-bearing mice; type: in vivo, NOD/SCID mice
# Text: White arrows point to tumor locations. […] Inset region is shown magnified on the right, white arrowhead points to tumor site. […] Asterisks denote a statistically difference with p<0.05 (n=8 mice/group). […] Panel F-G show histochemical analysis of caspase-3 activity in tumor-derived tissue sections (Panel F, vehicle-treated; Panel G, E8-treated). Panel H-I show TUNEL analysis of tumor-derived tissue sections (H, vehicle-treated; I, E8-treated).
# To evaluate the efficacy of E8 on tumor volume, the PEGylated aptamer was injected once every 2 days during the course of an 11-day period, at a dose of 100 mg/kg (equivalent in molar terms to standard chemotherapy).
# [8] = system: tumor cells in EVOC samples from TNBC patients; experiment: human ex-vivo organ cultures (EVOC), graded pathological assessment; type: cell-based; details: 0-4 scale, 2 blinded pathologists; 20-50 μM, two doses, 5 days; EVOC from 2 patients
# Procedure: Graded pathological assessment was made on a scale of 0-4 by two blinded pathologists. White stars denote samples in which an effect reached a grade of at least 3. Rnd, random.
# The efficacy of aptamer E8 (described in Example 10) was evaluated in human ex-vivo organ cultures (EVOC). EVOCs were freshly derived from two representative TNBC patients and were prepared by Curesponse. 250 μm wide tissue slices were plated onto a 24 well plate in culture medium at high oxygen conditions. Cancer cells of the primary tumor were kept viable for up to 14 days.
# The E8 aptamer and other chemotherapies (palbociclib, everolimus, fulvestrant) were administered at concentrations of 20-50 μM to the EVOCs. Following day 1, sample medium was replaced and a second dose of the same concentration of therapies were administered. After 5 days, samples were fixed with 4% w/v paraformaldehyde and histological sections were prepared and stained with hematoxylin-eosin. Effects were graded by 2 blinded pathologists on a 0-4 scale.
# [9] = PEGylated aptamer, 100 mg/kg once every 2 days
# [10] = following injection of E8 compared to the PBS control
sequence,measurement,setting,value
CGGACTCACGCAAGAGCGTTTGGCAGTGTAAAACTGTTTAACGTATCTGCTCGC (chemistry not given here) [Aptamer E8],induction of apoptosis (caspase-3/7 activation),[1]; compared to vehicle alone or random oligonucleotides,most effective of the selected aptamers at inducing apoptosis
same,level of direct target killing,"[1]; in-vitro and ex-vivo, independent biological replicate experiments",20-40%
same,"cell killing, target cells",[1]; selectivity at the target cell level,killing TNBC9
same,"cell killing, negative target cells",[2],but not MCF10A cells
same,effect on MDA-MB-231 cells,[3],remarkable effect
same,function in mouse serum,[4],retained function in mouse serum
same,blood agglutination,[5],No effects
same,red blood cell hemolysis,[5],No effects
same,cytokine release,[6],Only minor release of certain cytokines
same,TUNEL analysis (apoptotic DNA fragmentation) of tumor-derived tissue sections,[7]; [9],increase in cell death
same,histochemical analysis of caspase-3 activity in tumor-derived tissue sections,[7]; [9],significant staining
same,tumor volume change compared to vehicle-treated animals,"[7]; PEGylated aptamer, 100 mg/kg once every 2 days over 11 days",decreased significantly
same,final tumor volume on day 11,"[7]; PEGylated aptamer, 100 mg/kg once every 2 days over 11 days, vehicle 301±51",168±39 mm^3
same,macroscopic appearance of extracted tumors,"[7]; PEGylated aptamer, 100 mg/kg once every 2 days, tumors excised day 11",macroscopic signs of tissue death
same,body weight,[7]; [10],No significant changes
same,physical appearance,[7]; [10],No significant changes
same,pathological grade of effect on tumor cells,[8],3-4
